In patent publication US20250120967A1, “TYROSINE KINASES INHIBITORS AND USES THEREOF” (GREAT NOVEL THERAPEUTICS BIOTECH & MEDICALS CORPORATION, priority 2023, published 2025):

How the values were obtained:
Experiment in all cases: Tyrosine kinase inhibition assay
Type in all cases: biochemical
INSR = INSR (Homo sapiens, UniProt P06213); conditions: single concentration 1.0 μM, read-out: percent inhibition
In short: (§1)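 Values are percent inhibition at 1.0 μM compound, with inhibition above 80% defined as a hit. Peptide substrate phosphorylation was assessed by Z′-LYTE at apparent-Km ATP in HEPES pH 7.5 buffer containing MgCl2, EGTA and BRIJ-35.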

PIK3C3 (hVPS34) = PIK3C3 (hVPS34) (Homo sapiens, UniProt Q8NEB9); conditions: single concentration 1.0 μM, read-out: percent inhibition
In short: as §1

FGFR3 = FGFR3 (Homo sapiens, UniProt P22607); conditions: single concentration 1.0 μM, read-out: percent inhibition
In short: as §1

PTK2B (FAK2) = PTK2B (FAK2) (Homo sapiens, UniProt Q14289); conditions: single concentration 1.0 μM, read-out: percent inhibition
In short: as §1

JAK2 = JAK2 (Homo sapiens, UniProt O60674); conditions: single concentration 1.0 μM, read-out: percent inhibition
In short: as §1

SYK = SYK (Homo sapiens, UniProt P43405); conditions: single concentration 1.0 μM, read-out: percent inhibition
In short: as §1

PDGFRB (PDGFR beta) = PDGFRB (PDGFR beta) (Homo sapiens, UniProt P09619); conditions: single concentration 1.0 μM, read-out: percent inhibition
In short: as §1

JAK1 = JAK1 (Homo sapiens, UniProt P23458); conditions: single concentration 1.0 μM, read-out: percent inhibition
In short: as §1

NTRK1 (TRKA) = NTRK1 (TRKA) (Homo sapiens, UniProt P04629); conditions: single concentration 1.0 μM, read-out: percent inhibition
In short: as §1

EPHA1 = target: T1, EPHA1 (Homo sapiens, UniProt P21709); conditions: single concentration 1.0 μM, read-out: percent inhibition
T1 sequence (P21709 26-976): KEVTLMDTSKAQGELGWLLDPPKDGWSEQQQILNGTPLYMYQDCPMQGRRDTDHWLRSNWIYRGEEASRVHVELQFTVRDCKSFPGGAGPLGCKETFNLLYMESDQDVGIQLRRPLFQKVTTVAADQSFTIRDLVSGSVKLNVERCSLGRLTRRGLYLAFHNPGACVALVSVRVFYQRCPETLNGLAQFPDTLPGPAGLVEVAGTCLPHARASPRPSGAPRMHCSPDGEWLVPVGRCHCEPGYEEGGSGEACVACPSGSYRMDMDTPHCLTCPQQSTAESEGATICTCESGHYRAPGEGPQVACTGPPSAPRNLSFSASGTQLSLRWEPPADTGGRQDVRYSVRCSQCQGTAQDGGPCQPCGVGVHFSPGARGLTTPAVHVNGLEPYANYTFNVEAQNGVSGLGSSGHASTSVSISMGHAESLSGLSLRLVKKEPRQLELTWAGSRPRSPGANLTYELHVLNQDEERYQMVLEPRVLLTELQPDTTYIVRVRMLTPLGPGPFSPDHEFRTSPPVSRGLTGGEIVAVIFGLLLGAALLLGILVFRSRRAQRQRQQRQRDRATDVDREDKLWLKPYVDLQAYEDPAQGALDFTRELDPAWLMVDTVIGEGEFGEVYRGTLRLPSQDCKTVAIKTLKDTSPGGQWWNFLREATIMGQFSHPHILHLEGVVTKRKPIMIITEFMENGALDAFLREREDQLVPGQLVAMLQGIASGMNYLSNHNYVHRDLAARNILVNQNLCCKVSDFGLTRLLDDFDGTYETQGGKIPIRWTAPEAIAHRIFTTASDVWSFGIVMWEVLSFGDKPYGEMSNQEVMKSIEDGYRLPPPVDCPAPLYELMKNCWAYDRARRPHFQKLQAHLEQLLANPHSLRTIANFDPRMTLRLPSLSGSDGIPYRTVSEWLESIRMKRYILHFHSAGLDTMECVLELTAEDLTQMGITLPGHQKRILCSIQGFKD
In short: as §1

FGFR1 = FGFR1 (Homo sapiens, UniProt P11362); conditions: single concentration 1.0 μM, read-out: percent inhibition
In short: as §1

ABL2 (Arg) = ABL2 (Arg) (Homo sapiens, UniProt P42684); conditions: single concentration 1.0 μM, read-out: percent inhibition
In short: as §1

MAPK8 (JNK1) = MAPK8 (JNK1) (Homo sapiens, UniProt P45983); conditions: single concentration 1.0 μM, read-out: percent inhibition
In short: as §1

CSK = CSK (Homo sapiens, UniProt P41240); conditions: single concentration 1.0 μM, read-out: percent inhibition
In short: as §1

FYN A = FYN A (Homo sapiens, UniProt P06241); conditions: single concentration 1.0 μM, read-out: percent inhibition
In short: as §1

AKT2 (PKB beta) = AKT2 (PKB beta) (Homo sapiens, UniProt P31751); conditions: single concentration 1.0 μM, read-out: percent inhibition
In short: as §1

AURKB (Aurora B) = AURKB (Aurora B) (Homo sapiens, UniProt Q96GD4); conditions: single concentration 1.0 μM, read-out: percent inhibition
In short: as §1

ERBB4 (HER4) = ERBB4 (HER4) (Homo sapiens, UniProt Q15303); conditions: single concentration 1.0 μM, read-out: percent inhibition
In short: as §1

RAF1 (cRAF) Y340D Y341D = RAF1 (cRAF) Y340D Y341D (Homo sapiens, UniProt P04049, Y340D/Y341D); conditions: single concentration 1.0 μM, read-out: percent inhibition
In short: as §1

FYN = conditions: single concentration 1.0 μM
In short: as §1

Chain of PDGFRB (PDGFR beta) (P09619 33-1106): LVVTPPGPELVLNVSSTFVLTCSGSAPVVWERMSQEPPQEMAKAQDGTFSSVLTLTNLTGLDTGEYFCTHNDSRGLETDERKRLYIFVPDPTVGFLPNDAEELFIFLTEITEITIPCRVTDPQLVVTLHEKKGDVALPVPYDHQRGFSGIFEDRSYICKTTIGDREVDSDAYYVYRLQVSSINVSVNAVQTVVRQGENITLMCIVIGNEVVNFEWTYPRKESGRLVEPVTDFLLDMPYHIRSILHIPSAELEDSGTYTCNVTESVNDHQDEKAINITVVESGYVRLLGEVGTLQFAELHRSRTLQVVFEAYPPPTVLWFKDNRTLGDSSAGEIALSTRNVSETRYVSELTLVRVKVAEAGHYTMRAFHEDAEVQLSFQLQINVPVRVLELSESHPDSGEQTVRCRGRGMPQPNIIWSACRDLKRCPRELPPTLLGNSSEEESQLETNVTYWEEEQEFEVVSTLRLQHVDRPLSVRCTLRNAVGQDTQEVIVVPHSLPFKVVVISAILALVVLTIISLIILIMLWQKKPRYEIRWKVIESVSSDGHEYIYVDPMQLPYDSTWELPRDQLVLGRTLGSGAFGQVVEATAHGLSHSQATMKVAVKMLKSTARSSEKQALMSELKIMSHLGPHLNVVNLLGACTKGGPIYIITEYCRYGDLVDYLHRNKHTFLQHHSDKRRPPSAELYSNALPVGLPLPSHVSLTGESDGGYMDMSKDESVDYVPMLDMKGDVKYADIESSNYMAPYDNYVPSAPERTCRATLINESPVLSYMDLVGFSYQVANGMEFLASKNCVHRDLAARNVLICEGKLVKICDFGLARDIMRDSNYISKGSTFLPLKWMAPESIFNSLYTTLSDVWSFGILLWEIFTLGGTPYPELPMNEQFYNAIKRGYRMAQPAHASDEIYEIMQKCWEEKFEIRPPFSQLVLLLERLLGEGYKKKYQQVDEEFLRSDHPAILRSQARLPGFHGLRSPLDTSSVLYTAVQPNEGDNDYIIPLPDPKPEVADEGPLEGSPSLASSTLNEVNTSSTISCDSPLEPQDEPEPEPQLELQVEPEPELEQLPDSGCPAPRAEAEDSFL
Chain of RAF1 (cRAF) Y340D Y341D (P04049 whole entry Y340D/Y341D): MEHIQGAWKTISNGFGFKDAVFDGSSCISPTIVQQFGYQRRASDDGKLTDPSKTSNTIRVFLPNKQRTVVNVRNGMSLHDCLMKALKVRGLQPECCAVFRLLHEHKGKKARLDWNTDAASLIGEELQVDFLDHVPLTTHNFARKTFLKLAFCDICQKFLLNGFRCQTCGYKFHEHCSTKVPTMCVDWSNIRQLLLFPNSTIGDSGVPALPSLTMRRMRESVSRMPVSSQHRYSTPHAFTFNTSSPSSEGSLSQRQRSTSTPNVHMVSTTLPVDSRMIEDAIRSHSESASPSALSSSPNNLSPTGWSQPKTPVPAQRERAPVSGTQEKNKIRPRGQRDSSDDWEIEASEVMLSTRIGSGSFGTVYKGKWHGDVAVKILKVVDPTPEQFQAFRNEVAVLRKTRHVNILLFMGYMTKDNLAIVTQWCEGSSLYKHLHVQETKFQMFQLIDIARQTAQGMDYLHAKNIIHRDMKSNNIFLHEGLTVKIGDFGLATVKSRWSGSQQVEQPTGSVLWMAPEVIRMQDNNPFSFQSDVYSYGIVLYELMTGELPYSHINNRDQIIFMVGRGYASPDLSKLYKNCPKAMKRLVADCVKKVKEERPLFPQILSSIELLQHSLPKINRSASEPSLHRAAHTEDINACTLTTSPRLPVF
Chain of FGFR3 (P22607 23-806): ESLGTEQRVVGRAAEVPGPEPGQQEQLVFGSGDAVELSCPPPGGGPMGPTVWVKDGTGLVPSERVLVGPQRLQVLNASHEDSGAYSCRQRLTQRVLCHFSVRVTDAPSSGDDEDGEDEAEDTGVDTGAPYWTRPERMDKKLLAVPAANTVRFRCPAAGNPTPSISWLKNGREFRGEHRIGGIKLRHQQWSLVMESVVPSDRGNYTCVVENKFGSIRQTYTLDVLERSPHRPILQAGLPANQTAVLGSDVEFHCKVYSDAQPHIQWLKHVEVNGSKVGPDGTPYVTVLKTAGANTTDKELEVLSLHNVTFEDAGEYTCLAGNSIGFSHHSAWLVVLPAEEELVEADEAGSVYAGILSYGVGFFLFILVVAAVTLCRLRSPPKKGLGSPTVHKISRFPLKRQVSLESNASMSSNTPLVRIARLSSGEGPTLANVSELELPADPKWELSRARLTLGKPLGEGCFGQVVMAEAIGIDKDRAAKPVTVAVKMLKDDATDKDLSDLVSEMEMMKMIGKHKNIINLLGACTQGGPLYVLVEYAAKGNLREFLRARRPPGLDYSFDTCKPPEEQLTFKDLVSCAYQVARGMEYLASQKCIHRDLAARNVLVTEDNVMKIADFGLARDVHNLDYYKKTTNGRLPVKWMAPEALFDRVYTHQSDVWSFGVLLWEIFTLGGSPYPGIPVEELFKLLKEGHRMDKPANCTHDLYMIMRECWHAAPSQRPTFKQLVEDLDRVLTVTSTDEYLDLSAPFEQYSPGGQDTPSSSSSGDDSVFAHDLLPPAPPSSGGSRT
Chain of FGFR1 (P11362 22-822): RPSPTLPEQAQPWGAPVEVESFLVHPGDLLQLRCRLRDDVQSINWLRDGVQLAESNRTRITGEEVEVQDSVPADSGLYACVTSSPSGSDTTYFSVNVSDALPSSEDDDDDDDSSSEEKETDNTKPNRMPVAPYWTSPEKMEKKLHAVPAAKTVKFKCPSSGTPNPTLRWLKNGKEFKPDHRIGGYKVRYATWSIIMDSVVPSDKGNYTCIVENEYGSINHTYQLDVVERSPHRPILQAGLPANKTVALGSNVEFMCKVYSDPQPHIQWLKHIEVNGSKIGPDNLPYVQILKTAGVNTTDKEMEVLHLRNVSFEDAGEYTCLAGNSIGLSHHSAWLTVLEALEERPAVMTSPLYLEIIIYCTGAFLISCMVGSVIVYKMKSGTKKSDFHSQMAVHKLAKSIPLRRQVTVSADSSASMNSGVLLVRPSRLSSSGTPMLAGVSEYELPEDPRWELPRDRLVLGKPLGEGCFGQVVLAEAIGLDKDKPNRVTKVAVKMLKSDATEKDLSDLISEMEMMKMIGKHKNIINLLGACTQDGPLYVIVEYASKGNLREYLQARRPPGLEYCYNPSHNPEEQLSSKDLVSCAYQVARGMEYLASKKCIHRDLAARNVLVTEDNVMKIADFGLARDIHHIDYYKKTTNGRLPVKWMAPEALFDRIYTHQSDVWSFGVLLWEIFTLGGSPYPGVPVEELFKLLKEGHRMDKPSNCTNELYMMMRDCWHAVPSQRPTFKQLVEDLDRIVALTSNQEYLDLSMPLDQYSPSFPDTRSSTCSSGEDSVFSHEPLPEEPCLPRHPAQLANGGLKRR
Chain of ERBB4 (HER4) (Q15303 26-1308): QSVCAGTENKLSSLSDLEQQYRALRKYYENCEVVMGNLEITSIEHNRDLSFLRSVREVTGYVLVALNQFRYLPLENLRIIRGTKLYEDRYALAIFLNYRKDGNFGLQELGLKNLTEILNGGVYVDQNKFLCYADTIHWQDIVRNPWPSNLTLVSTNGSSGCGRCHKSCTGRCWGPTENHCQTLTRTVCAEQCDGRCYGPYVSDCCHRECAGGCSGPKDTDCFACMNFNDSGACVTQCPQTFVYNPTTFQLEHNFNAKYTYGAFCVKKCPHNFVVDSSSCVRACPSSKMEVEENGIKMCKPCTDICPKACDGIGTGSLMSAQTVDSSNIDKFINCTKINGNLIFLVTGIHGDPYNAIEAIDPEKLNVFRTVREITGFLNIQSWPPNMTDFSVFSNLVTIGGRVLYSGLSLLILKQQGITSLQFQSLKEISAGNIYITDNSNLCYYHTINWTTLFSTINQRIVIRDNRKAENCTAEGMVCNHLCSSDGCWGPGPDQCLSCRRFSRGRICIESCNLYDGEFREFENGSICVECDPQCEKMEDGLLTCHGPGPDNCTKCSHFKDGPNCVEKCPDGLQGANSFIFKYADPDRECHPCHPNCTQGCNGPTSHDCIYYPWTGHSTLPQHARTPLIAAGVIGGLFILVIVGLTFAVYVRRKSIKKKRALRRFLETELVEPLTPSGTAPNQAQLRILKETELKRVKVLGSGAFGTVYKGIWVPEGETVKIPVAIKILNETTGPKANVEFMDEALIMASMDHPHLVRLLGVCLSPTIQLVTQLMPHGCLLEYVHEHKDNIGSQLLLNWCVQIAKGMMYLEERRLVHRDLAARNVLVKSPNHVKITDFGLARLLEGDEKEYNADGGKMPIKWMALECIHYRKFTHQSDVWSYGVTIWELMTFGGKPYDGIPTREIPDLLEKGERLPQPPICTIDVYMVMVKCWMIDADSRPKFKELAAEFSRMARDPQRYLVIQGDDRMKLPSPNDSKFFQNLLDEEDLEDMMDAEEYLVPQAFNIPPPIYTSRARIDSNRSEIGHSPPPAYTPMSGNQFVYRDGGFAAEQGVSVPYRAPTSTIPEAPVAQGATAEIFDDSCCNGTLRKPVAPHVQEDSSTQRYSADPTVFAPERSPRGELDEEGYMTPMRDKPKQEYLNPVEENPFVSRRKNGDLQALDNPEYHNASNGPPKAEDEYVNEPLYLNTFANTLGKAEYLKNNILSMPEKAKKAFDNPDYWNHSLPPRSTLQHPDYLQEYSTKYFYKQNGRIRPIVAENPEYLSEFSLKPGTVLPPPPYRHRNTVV
Chain of AKT2 (PKB beta) (P31751 whole entry): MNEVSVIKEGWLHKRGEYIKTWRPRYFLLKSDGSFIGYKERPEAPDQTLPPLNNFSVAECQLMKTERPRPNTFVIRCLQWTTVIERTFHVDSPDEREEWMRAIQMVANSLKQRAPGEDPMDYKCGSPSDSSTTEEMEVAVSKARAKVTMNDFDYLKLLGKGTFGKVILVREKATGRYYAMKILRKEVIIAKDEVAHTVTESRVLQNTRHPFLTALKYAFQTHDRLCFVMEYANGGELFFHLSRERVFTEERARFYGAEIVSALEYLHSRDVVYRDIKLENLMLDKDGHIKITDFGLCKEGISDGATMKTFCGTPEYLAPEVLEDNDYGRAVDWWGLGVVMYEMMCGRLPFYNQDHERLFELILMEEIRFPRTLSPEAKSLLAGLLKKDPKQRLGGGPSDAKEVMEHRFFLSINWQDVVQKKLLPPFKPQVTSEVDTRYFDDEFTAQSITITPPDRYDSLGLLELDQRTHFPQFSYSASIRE

Row | SMILES | inhibition at 1 µM (INSR) [%] | inhibition at 1 µM (PIK3C3 (hVPS34)) [%] | inhibition at 1 µM (FGFR3) [%] | inhibition at 1 µM (PTK2B (FAK2)) [%] | inhibition at 1 µM (JAK2) [%] | inhibition at 1 µM (SYK) [%] | inhibition at 1 µM (PDGFRB (PDGFR beta)) [%] | inhibition at 1 µM (JAK1) [%] | inhibition at 1 µM (NTRK1 (TRKA)) [%] | inhibition at 1 µM (EPHA1) [%] | inhibition at 1 µM (FGFR1) [%] | inhibition at 1 µM (ABL2 (Arg)) [%] | inhibition at 1 µM (MAPK8 (JNK1)) [%] | inhibition at 1 µM (CSK) [%] | inhibition at 1 µM (FYN A) [%] | inhibition at 1 µM (AKT2 (PKB beta)) [%] | inhibition at 1 µM (AURKB (Aurora B)) [%] | inhibition at 1 µM (ERBB4 (HER4)) [%] | inhibition at 1 µM (RAF1 (cRAF) Y340D Y341D) [%] | percent inhibition (FYN) [%]
1 | COc1cc2nccc(Oc3ccc(NC(=O)C4(C(=O)Nc5ccc(F)cc5)CC4)cc3)c2cc1OC [Cabozantinib, reference compound] | 16 | 0 | 16 | 71 | 24 | 16 | 73 | 0 | 98 | 74 | 12 | 35 | -2 | 49 | 74 | 17 | 84 | 35 | 66 | –
2 | COc1cc2nccc(Oc3ccc(NC(=O)C4(NC(=O)c5ccc(F)cc5)CC4)cc3F)c2cc1OC [Cbo-02, N-(1-((4-((6,7-diMethoxyquinolin-4-yl)oxy)-3-fluorophenyl)carbamoyl)cyclopropyl)-4-fluorobenzamide] | 30 | 1 | 4 | 9 | 6 | 14 | 34 | 1 | 58 | 29 | 3 | 12 | 5 | 87 | 30 | 10 | 99 | 31 | -8 | 16
3 | COc1cc2nccc(Oc3ccc(NC(=O)C4(NC(=O)c5ccc(F)cc5)CC4)cc3F)c2cc1Oc1ccc(N)cc1F [Cbo-10] | 69 | -5 | 19 | 56 | -1 | 24 | 52 | 2 | 80 | 84 | 1 | 17 | 32 | 97 | 47 | 5 | 83 | 94 | 3 | 35
4 | COc1cc2nccc(Oc3ccc(NC(=O)C4(NC(=O)c5ccc(F)cc5)CC4)cc3F)c2cc1Oc1c(F)cc(N)cc1F [Cbo-14] | 70 | 6 | 19 | 54 | 1 | 27 | 56 | 1 | 71 | 80 | 5 | 18 | 41 | 97 | 57 | 10 | 84 | 93 | 3 | 48
5 | COc1cc2nccc(Oc3ccc(NC(=O)C4(C(=O)Nc5ccc(F)cc5)CC4)cc3F)c2cc1Oc1ccc(N)cc1F [Cbo-23] | 54 | -4 | 13 | 100 | 58 | 15 | 56 | 4 | 97 | 96 | 27 | 54 | -2 | 66 | 70 | 0 | 67 | 72 | 40 | 51
